Experimental data taken from paper PMC5467912, “Asymmetric regulation of quorum-sensing receptors drives autoinducer-specific gene expression programs in Vibrio cholerae” (PLoS Genetics, 2017).
Where “and” joins values, the source holds several entries; their conditions need not be identical. Equal entries are not always repeated. Where two headings read alike, the source gives them in different places.

Key:
[1] = tested on: QS-controlled luxCDABE operon; format: cell-based
CqsS F166L = test: CqsS-dependent repression of qrr4-gfp, CqsS F166L (Fig 7C); format: cell-based, Vibrio cholerae
[2] = ΔcqsA strain carrying luciferase

Structure (SMILES): CCCCCCCCCC(=O)[C@@H](O)CC [CAI-1, (S)-3-hydroxytridecan-4-one]
- Light production ([1]; 5nM CAI-1, OD600 0.005): 81418.9 RLU and 88175.7 RLU
- Light production ([1]; 5nM CAI-1, OD600 0.0328): 3079268 RLU and 3871951 RLU
- Light production ([1]; 5nM CAI-1, OD600 0.1753): 587564 RLU
- Light production ([1]; 5nM CAI-1, OD600 0.3442): 310866 RLU and 554910 RLU
- Light production ([1]; 5nM CAI-1, OD600 0.801): 179775 RLU and 309613 RLU
- Light production ([1]; 5nM CAI-1, OD600 1.26): 81746 RLU and 99206.4 RLU
- Light production ([1]; 5nM CAI-1, OD600 1.834): 45747000 RLU and 48964010 RLU
- Light production ([1]; 5nM CAI-1, OD600 2.816): 21306820 RLU and 22194600 RLU
- Light production ([1]; 5nM CAI-1, OD600 3.828): 7523511 RLU and 7967607 RLU
- Light production ([1]; 10nM CAI-1, OD600 0.005): 81418.9 RLU and 88175.7 RLU
- Light production ([1]; 10nM CAI-1, OD600 0.0309): 3915858 RLU and 6084143 RLU
- Light production ([1]; 10nM CAI-1, OD600 0.3229): 637968 RLU and 656550 RLU
- Light production ([1]; 10nM CAI-1, OD600 1.126): 88099.5 RLU and 91474.2 RLU
- Light production ([1]; 10nM CAI-1, OD600 1.799): 63924400 RLU and 62812670 RLU
- Light production ([1]; 10nM CAI-1, OD600 3.014): 33012610 RLU and 33842070 RLU
- Light production ([1]; 10nM CAI-1, OD600 3.657): 10363690 RLU and 11730930 RLU
- Light production ([1]; 50nM CAI-1, OD600 0.005): 88175.7 RLU and 81418.9 RLU
- Light production ([1]; 50nM CAI-1, OD600 0.17): 729000 RLU and 688000 RLU
- Light production ([1]; 50nM CAI-1, OD600 1.08): 697000 RLU
- Light production ([1]; 50nM CAI-1, OD600 1.1): 90900 RLU and 113000 RLU
- Light production ([1]; 50nM CAI-1, OD600 1.96): 526000000 RLU and 531000000 RLU
- Light production ([1]; 50nM CAI-1, OD600 2.94): 619000000 RLU and 599000000 RLU
- Light production ([1]; 50nM CAI-1, OD600 3.55): 346000000 RLU and 321000000 RLU
- Light production ([1]; 100nM CAI-1, OD600 0.005): 81418.9 RLU and 88175.7 RLU
- Light production ([1]; 100nM CAI-1, OD600 0.0305): 3670000 RLU and 6790000 RLU
- Light production ([1]; 100nM CAI-1, OD600 0.1651): 654000 RLU and 1050000 RLU
- Light production ([1]; 100nM CAI-1, OD600 0.3167): 332000 RLU and 388000 RLU
- Light production ([1]; 100nM CAI-1, OD600 0.721): 196000 RLU and 241000 RLU
- Light production ([1]; 100nM CAI-1, OD600 1.101): 2280000 RLU
- Light production ([1]; 100nM CAI-1, OD600 2.679): 3170000000 RLU
- Light production ([1]; 100nM CAI-1, OD600 3.677): 1830000000 RLU and 1870000000 RLU
- Light production ([1]; 200nM CAI-1, OD600 0.005): 81418.9 RLU and 88175.7 RLU
- Light production ([1]; 200nM CAI-1, OD600 0.0621): 2130000 RLU and 2790000 RLU
- Light production ([1]; 200nM CAI-1, OD600 0.3026): 568000 RLU and 806000 RLU
- Light production ([1]; 200nM CAI-1, OD600 0.5074): 946000 RLU and 1180000 RLU
- Light production ([1]; 200nM CAI-1, OD600 0.5715): 2260000 RLU and 2870000 RLU
- Light production ([1]; 200nM CAI-1, OD600 1.099): 27300000 RLU and 26900000 RLU
- Light production ([1]; 200nM CAI-1, OD600 1.844): 5910000000 RLU
- Light production ([1]; 200nM CAI-1, OD600 2.341): 8370000000 RLU and 9230000000 RLU
- Light production ([1]; 200nM CAI-1, OD600 3.352): 11800000000 RLU and 12600000000 RLU
- Light production ([1]; 200nM CAI-1, OD600 4.26): 7350000000 RLU and 7860000000 RLU
- Light production ([1]; 400nM CAI-1, OD600 0.005): 81418.9 RLU and 88175.7 RLU
- Light production ([1]; 400nM CAI-1, OD600 0.0614): 1510000 RLU and 1840000 RLU
- Light production ([1]; 400nM CAI-1, OD600 0.3014): 358000 RLU and 392000 RLU
- Light production ([1]; 400nM CAI-1, OD600 0.5621): 3290000 RLU and 3630000 RLU
- Light production ([1]; 400nM CAI-1, OD600 1.037): 74300000 RLU and 84000000 RLU
- Light production ([1]; 400nM CAI-1, OD600 1.532): 10100000000 RLU
- Light production ([1]; 400nM CAI-1, OD600 2): 31900000000 RLU and 31800000000 RLU
- Light production ([1]; 400nM CAI-1, OD600 3.04): 22900000000 RLU and 24900000000 RLU
- Light production ([1]; 400nM CAI-1, OD600 3.35): 22600000000 RLU and 24400000000 RLU
- CAI-1 concentration at which induction of bioluminescence occurred [1, 2]: 50 nM
- CAI-1 concentrations that failed to activate a QS response [1, 2]: below 50 nM
- CAI-1 concentrations that fully induced QS [1, 2]: above 200 nM
- Qrr4-GFP/OD600 (CqsS F166L; Treatment 1uM, CqsS mutant F166L): 7778886 and 7289924 and 6896372
- response (Qrr4-GFP production) (CqsS F166L; compounds at 1 μM): nearly impervious
